Source: patent US9492376B2, “Polymer-conjugated albumin hydrogels for controlled release of therapeutic agents” (TECHNION RESEARCH AND DEVELOPMENT FOUNDATION LTD., priority 2008, dated 2016)

Tests used:
[1] = Drug release from hydrogels, with diffusion model fitting; assay type: physicochemical; conditions: for Average drug release (last 30 min), normalized amount: released from purified mono-PEGylated albumin hydrogels (10 kDa PEG), insulins fluorescein-labelled, FIG. 5
Protocol: Both LEVEMIR® and […]® were fluorescently labelled by 5 mg/ml NHS-fluorescein (Pierce, Illinois, U.S.A.) in DMSO, with a molar ratio of 15:1 NHS-fluorescein to insulin. The solution was allowed to react for 5 hr in 4° C. and dialysed (Cellu-Sep H1, 1-kDaMW cutoff, Texas, U.S.A.) against PBS with 0.1% (w/v) of sodium azide with DMSO in decreasing concentrations of DMSO (10-0%) for 1 week.
The drug was saturated in disk-shaped hydrogel constructs prepared from PEG-DA or PEGylated proteins, that were formed into hydrogels by photopolymerization using 0.1% (w/v) Irgacure™ 2959 (Ciba Specialty Chemicals, Basel, Switzerland) and UV light (λ=365 nm, 4-5 mW/cm^2) exposure for 5 min as described elsewhere (Gonen-Wadmany et al., 2007). The hydrogel constructs were produced from six different hydrogel precursor solutions, including: (i) purified mono-PEGylated albumin in PEG-DA; (ii) non-purified mono-PEGylated albumin (containing wild-type and multi-PEGylated albumin) in PEG-DA; (iii) multi-PEGylated albumin in PEG-DA; (iv) wild-type albumin in PEG-DA; (v) PEG-DA; (vi) PEGylated fibrinogen in PEG-DA. In all cases, the protein (albumin or fibrinogen) concentration was 8.5 mg/ml, and the PEG-DA was added to reach a total PEG concentration of 7%.
Drug release from the hydrogel constructs into the supernatant was measured fluorescently (excitation at […]) in PBS with 0.1% (w/v) of sodium azide under constant agitation at 37° C. using a Varioscan plate-reader (Thermo Electron Corporation, Finland). (In the case of degradation experiments, 0.01 mg/ml of Trypsin (MP Biomedicals) was added to the PBS solution.) The raw data was normalized by the fluorescence intensity measured after 24 hours. The constructs were liquefied by homogenization or sonication (for multi-PEGylated albumin and fibrinogen), or by chemical means using 0.1 M NaOH, and the drug content was quantified to confirm complete drug release.
The drug release profiles were compared with a known model of diffusion-based release kinetics. […]

serum albumin = serum albumin (Homo sapiens, UniProt P02768); conditions: cited from earlier work
[2] = Warfarin fluorescence and albumin binding; conditions: for Fluorescence Intensity Ratio Comparing to Warfarin Alone: 5 mg/ml protein in PBS, 10:1 molar ratio albumin to Warfarin, ~5 hours incubation, excitation 320 nm, emission 385 nm, n = 6
Protocol: The mixture was incubated for ˜5 hours before reading fluorescence emission (λ=385 nm) at a 320 nm excitation wavelength using a Varioscan spectral scanning multimode reader (Thermo Electron Corporation, Vantaa, Finland).

[3] = Equilibrium dialysis of Warfarin with wild-type or PEGylated albumin; assay type: binding; conditions: result in words; for affinity of Warfarin to the protein by equilibrium dialysis: equilibrium at about 24 hr, compared to wild-type albumin
Protocol: The two chambers of the device were separated by a dialysis membrane (12-14 kDa MW cutoff) and drug diffusion was measured by fluorescence spectroscopy. One dialysis chamber of the device was filled with 25 ml PBS solution containing 0.1% (w/v) of sodium azide (Fluka).

Compound | Average drug release (last 30 min), normalized amount [1] | Fluorescence Intensity Ratio Comparing to Warfarin Alone [2] | affinity of Warfarin to the protein by equilibrium dialysis [3] | further results
ACTRAPID®: regular human insulin formulation, 100 IU/ml, Novo Nordisk; no binding affinity to serum albumin | 0.57±0.14 | – | – | binding affinity to serum albumin (serum albumin): no binding affinity
PEG-Alb 1.5 kDa: bovine serum albumin multi-PEGylated with linear 1.5 kDa PEG-DA, in solution | – | 1.6 ± 0.3 | significantly less affinity | –
COc1ccc2cc([C@H](C)C(=O)O)ccc2c1 [Naproxen] | 0.66±0.07 | – | – | release kinetics of drugs compared ([1]; from purified mono-PEGylated albumin hydrogels (10 kDa PEG), p-value<0.05): released significantly faster
Albumin: bovine serum albumin (MP Biomedicals), non-PEGylated control in solution | – | 2.8 ± 0.2 | – | increase in Warfarin fluorescence when bound to albumin ([2]; bovine albumin, versus unbound Warfarin): 2.8 fold; percent of drug (Warfarin) transported through the dialysis membrane at equilibrium ([3]; about 24 hr, albumin to Warfarin 5:1, room temperature): lowest
PEG-Alb 4 kDa: bovine serum albumin multi-PEGylated with linear 4 kDa PEG-DA, in solution | – | 1.5 ± 0.4 | significantly less affinity | –
PEG-Alb 10 kDa: bovine serum albumin multi-PEGylated with linear 10 kDa PEG-DA, in solution | – | 1.5 ± 0.5 | – | –
